Laboratory results taken from patent US12702691B2, “Extract of an herbal composition as antimicrobial and/or antibiofilm agent” (ALPHANOSOS S.A.S., priority 2016, dated 2026).

Tests used:
B-A21 = assay: Planktonic growth with extract and antibiotic relative to growth without both (Example 14); assay type: cell-based
Description: (§1) Starting from the herbal composition, the corresponding water extracts (or processed samples) was prepared according to the previously described Method B using 2.06 g of the above herbal composition with 40 mL water with 100 g/L sucrose for water extraction and including the decantation step before filtration. In an independent water extract preparation without sucrose, it has been measured that 2.06 g/40 mL of herbal composition corresponds to 14.5 g/L as deduced from the weight of the lyophilized dry herbal extract.
(§2) In Example 14 we calculate the growth of the bacteria in presence of antibiotic and/or herbal mix relative to the growth in the absence of both antibiotic and herbal mix extract.

B-A17 = assay: as above; assay type: cell-based
Description: as §1, §2

[1] = M[20C]-576 0 μg/mL, antibiotic 3.91 μg/mL
[2] = M[20C]-576 0 μg/mL, antibiotic 7.81 μg/mL
[3] = M[20C]-576 0 μg/mL, antibiotic 15.63 μg/mL
[4] = M[20C]-576 0 μg/mL, antibiotic 31.25 μg/mL
[5] = M[20C]-576 0 μg/mL, antibiotic 62.50 μg/mL
[6] = M[20C]-576 0 μg/mL, antibiotic 125 μg/mL
[7] = M[20C]-576 0 μg/mL, antibiotic 250 μg/mL
[8] = M[20C]-576 0 μg/mL, antibiotic 500 μg/mL
[9] = M[20C]-576 0 μg/mL, antibiotic 1000 μg/mL
[10] = M[20C]-576 0 μg/mL, antibiotic 2000 μg/mL
[11] = M[20C]-576 0 μg/mL, antibiotic 4000 μg/mL
[12] = M[20C]-576 90.6 μg/mL, antibiotic 3.91 μg/mL
[13] = M[20C]-576 90.6 μg/mL, antibiotic 7.81 μg/mL
[14] = M[20C]-576 90.6 μg/mL, antibiotic 15.63 μg/mL
[15] = M[20C]-576 90.6 μg/mL, antibiotic 31.25 μg/mL
[16] = M[20C]-576 90.6 μg/mL, antibiotic 62.50 μg/mL
[17] = M[20C]-576 90.6 μg/mL, antibiotic 125 μg/mL
[18] = M[20C]-576 90.6 μg/mL, antibiotic 250 μg/mL
[19] = M[20C]-576 90.6 μg/mL, antibiotic 500 μg/mL
[20] = M[20C]-576 90.6 μg/mL, antibiotic 1000 μg/mL
[21] = M[20C]-576 90.6 μg/mL, antibiotic 2000 μg/mL
[22] = M[20C]-576 90.6 μg/mL, antibiotic 4000 μg/mL
[23] = M[20C]-576 181.3 μg/mL, antibiotic 3.91 μg/mL
[24] = M[20C]-576 181.3 μg/mL, antibiotic 7.81 μg/mL
[25] = M[20C]-576 181.3 μg/mL, antibiotic 15.63 μg/mL
[26] = M[20C]-576 181.3 μg/mL, antibiotic 31.25 μg/mL
[27] = M[20C]-576 181.3 μg/mL, antibiotic 62.50 μg/mL
[28] = M[20C]-576 181.3 μg/mL, antibiotic 125 μg/mL
[29] = M[20C]-576 181.3 μg/mL, antibiotic 250 μg/mL
[30] = M[20C]-576 181.3 μg/mL, antibiotic 500 μg/mL
[31] = M[20C]-576 181.3 μg/mL, antibiotic 1000 μg/mL
[32] = M[20C]-576 181.3 μg/mL, antibiotic 2000 μg/mL
[33] = M[20C]-576 181.3 μg/mL, antibiotic 4000 μg/mL

## CN[C@H](CC(C)C)C(=O)N[C@H]1C(=O)N[C@@H](CC(N)=O)C(=O)N[C@H]2C(=O)N[C@H]3C(=O)N[C@H](C(=O)N[C@H](C(=O)O)c4cc(O)cc(O)c4-c4cc3ccc4O)[C@H](O)c3ccc(c(Cl)c3)Oc3cc2cc(c3O[C@@H]2O[C@H](CO)[C@@H](O)[C@H](O)[C@H]2O[C@H]2C[C@](C)(N)[C@H](O)[C@H](C)O2)Oc2ccc(cc2Cl)[C@H]1O [Vancomycin]
B-A21; [1]
  planktonic growth relative to the growth in the absence of both extract and antibiotic: 118%
B-A21; [2]
  planktonic growth relative to the growth in the absence of both extract and antibiotic: 117%
B-A21; [3]
  planktonic growth relative to the growth in the absence of both extract and antibiotic: 113%
B-A21; [4]
  planktonic growth relative to the growth in the absence of both extract and antibiotic: 117%
B-A21; [5]
  planktonic growth relative to the growth in the absence of both extract and antibiotic: 110%
B-A21; [6]
  planktonic growth relative to the growth in the absence of both extract and antibiotic: 102%
B-A21; [7]
  planktonic growth relative to the growth in the absence of both extract and antibiotic: 102%
B-A21; [8]
  planktonic growth relative to the growth in the absence of both extract and antibiotic: 102%
B-A21; [9]
  planktonic growth relative to the growth in the absence of both extract and antibiotic: 0%
B-A21; [10]
  planktonic growth relative to the growth in the absence of both extract and antibiotic: 0%
B-A21; [11]
  planktonic growth relative to the growth in the absence of both extract and antibiotic: 0%
B-A21; [12]
  planktonic growth relative to the growth in the absence of both extract and antibiotic: 102%
B-A21; [13]
  planktonic growth relative to the growth in the absence of both extract and antibiotic: 82%
B-A21; [14]
  planktonic growth relative to the growth in the absence of both extract and antibiotic: 88%
B-A21; [15]
  planktonic growth relative to the growth in the absence of both extract and antibiotic: 77%
B-A21; [16]
  planktonic growth relative to the growth in the absence of both extract and antibiotic: 76%
B-A21; [17]
  planktonic growth relative to the growth in the absence of both extract and antibiotic: 77%
B-A21; [18]
  planktonic growth relative to the growth in the absence of both extract and antibiotic: 74%
B-A21; [19]
  planktonic growth relative to the growth in the absence of both extract and antibiotic: 67%
B-A21; [20]
  planktonic growth relative to the growth in the absence of both extract and antibiotic: 0%
B-A21; [21]
  planktonic growth relative to the growth in the absence of both extract and antibiotic: 0%
B-A21; [22]
  planktonic growth relative to the growth in the absence of both extract and antibiotic: 0%
B-A21; [23]
  planktonic growth relative to the growth in the absence of both extract and antibiotic: 48%
B-A21; [24]
  planktonic growth relative to the growth in the absence of both extract and antibiotic: 63%
B-A21; [25]
  planktonic growth relative to the growth in the absence of both extract and antibiotic: 57%
B-A21; [26]
  planktonic growth relative to the growth in the absence of both extract and antibiotic: 60%
B-A21; [27]
  planktonic growth relative to the growth in the absence of both extract and antibiotic: 57%
B-A21; [28]
  planktonic growth relative to the growth in the absence of both extract and antibiotic: 41%
B-A21; [29]
  planktonic growth relative to the growth in the absence of both extract and antibiotic: 57%
B-A21; [30]
  planktonic growth relative to the growth in the absence of both extract and antibiotic: 32%
B-A21; [31]
  planktonic growth relative to the growth in the absence of both extract and antibiotic: −2%
B-A21; [32]
  planktonic growth relative to the growth in the absence of both extract and antibiotic: −3%
B-A21; [33]
  planktonic growth relative to the growth in the absence of both extract and antibiotic: 0%
B-A17; [1]
  planktonic growth relative to the growth in the absence of both extract and antibiotic: 135%
B-A17; [2]
  planktonic growth relative to the growth in the absence of both extract and antibiotic: 118%
B-A17; [3]
  planktonic growth relative to the growth in the absence of both extract and antibiotic: 114%
B-A17; [4]
  planktonic growth relative to the growth in the absence of both extract and antibiotic: 117%
B-A17; [5]
  planktonic growth relative to the growth in the absence of both extract and antibiotic: 115%
B-A17; [6]
  planktonic growth relative to the growth in the absence of both extract and antibiotic: 116%
B-A17; [7]
  planktonic growth relative to the growth in the absence of both extract and antibiotic: 118%
B-A17; [8]
  planktonic growth relative to the growth in the absence of both extract and antibiotic: 128%
B-A17; [9]
  planktonic growth relative to the growth in the absence of both extract and antibiotic: 117%
B-A17; [10]
  planktonic growth relative to the growth in the absence of both extract and antibiotic: 0%
B-A17; [11]
  planktonic growth relative to the growth in the absence of both extract and antibiotic: 0%
B-A17; [12]
  planktonic growth relative to the growth in the absence of both extract and antibiotic: 65%
B-A17; [13]
  planktonic growth relative to the growth in the absence of both extract and antibiotic: 66%
B-A17; [14]
  planktonic growth relative to the growth in the absence of both extract and antibiotic: 65%
B-A17; [15]
  planktonic growth relative to the growth in the absence of both extract and antibiotic: 74%
B-A17; [16]
  planktonic growth relative to the growth in the absence of both extract and antibiotic: 70%
B-A17; [17]
  planktonic growth relative to the growth in the absence of both extract and antibiotic: 67%
B-A17; [18]
  planktonic growth relative to the growth in the absence of both extract and antibiotic: 66%
B-A17; [19]
  planktonic growth relative to the growth in the absence of both extract and antibiotic: 63%
B-A17; [20]
  planktonic growth relative to the growth in the absence of both extract and antibiotic: 0%
B-A17; [21]
  planktonic growth relative to the growth in the absence of both extract and antibiotic: 0%
B-A17; [22]
  planktonic growth relative to the growth in the absence of both extract and antibiotic: 0%
B-A17; [23]
  planktonic growth relative to the growth in the absence of both extract and antibiotic: 40%
B-A17; [24]
  planktonic growth relative to the growth in the absence of both extract and antibiotic: 41%
B-A17; [25]
  planktonic growth relative to the growth in the absence of both extract and antibiotic: 53%
B-A17; [26]
  planktonic growth relative to the growth in the absence of both extract and antibiotic: 55%
B-A17; [27]
  planktonic growth relative to the growth in the absence of both extract and antibiotic: 55%
B-A17; [28]
  planktonic growth relative to the growth in the absence of both extract and antibiotic: 54%
B-A17; [29]
  planktonic growth relative to the growth in the absence of both extract and antibiotic: 46%
B-A17; [30]
  planktonic growth relative to the growth in the absence of both extract and antibiotic: 47%
B-A17; [31]
  planktonic growth relative to the growth in the absence of both extract and antibiotic: −3%
B-A17; [32]
  planktonic growth relative to the growth in the absence of both extract and antibiotic: −3%
B-A17; [33]
  planktonic growth relative to the growth in the absence of both extract and antibiotic: −2%
